Experimental data from US20240058283A1, “THE MODE OF ACTION OF N-MeDCPA ON TRPC CHANNELS” (West Virginia University Board of Governors on Behalf of …, priority 2022, published 2024).
pIC50: −log10 of the molar value. Like-named read-outs stand apart in the source and are kept apart here.

What was measured:
TRPC3 = biological target: T1, TRPC3 (Homo sapiens, UniProt Q13507); test: OAG-induced Ca2+ entry in Fura2-loaded HEK293 cells expressing TRPC3; format: cell-based; conditions: ELP-004 0 to 1 mM for 10 minutes before OAG, FIG. 1D, read-out: IC50, inhibition of OAG-induced Ca2+ entry
T1 construct: expressed in transfected cells
T1 sequence (Q13507 1-921): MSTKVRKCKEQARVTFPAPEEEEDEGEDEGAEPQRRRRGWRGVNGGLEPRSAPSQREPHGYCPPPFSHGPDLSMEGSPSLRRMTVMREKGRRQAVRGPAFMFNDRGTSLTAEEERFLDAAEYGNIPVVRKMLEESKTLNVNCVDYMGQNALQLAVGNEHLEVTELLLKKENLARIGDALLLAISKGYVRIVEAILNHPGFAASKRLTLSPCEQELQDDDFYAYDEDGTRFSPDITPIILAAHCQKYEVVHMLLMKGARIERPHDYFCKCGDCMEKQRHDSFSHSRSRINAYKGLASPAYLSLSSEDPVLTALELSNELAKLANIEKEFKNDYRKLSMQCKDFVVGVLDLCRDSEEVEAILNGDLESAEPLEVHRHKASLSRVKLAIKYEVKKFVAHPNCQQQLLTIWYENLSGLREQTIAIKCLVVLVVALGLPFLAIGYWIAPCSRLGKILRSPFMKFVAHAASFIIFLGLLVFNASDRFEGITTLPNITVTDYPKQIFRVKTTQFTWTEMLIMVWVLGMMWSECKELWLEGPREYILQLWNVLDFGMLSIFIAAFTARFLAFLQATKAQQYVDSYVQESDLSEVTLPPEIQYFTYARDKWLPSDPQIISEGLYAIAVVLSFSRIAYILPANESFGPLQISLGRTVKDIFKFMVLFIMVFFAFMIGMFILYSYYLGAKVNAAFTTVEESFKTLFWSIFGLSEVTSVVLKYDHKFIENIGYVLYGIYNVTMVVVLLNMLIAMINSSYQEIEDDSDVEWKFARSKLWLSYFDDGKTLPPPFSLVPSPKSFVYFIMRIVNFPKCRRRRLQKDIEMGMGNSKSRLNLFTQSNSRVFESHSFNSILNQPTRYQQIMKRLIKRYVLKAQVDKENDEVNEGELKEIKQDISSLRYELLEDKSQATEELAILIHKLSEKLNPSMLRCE
Experimental: (§1) Inhibition of DAG-mediated TRPC activation. To determine if ELP-004 (N-MeDCPA) inhibits DAG-induced TRPC activation, HEK293 cells expressing TRPC3, TRPC6 or TRPC7 were loaded with Fura2 and incubated with ELP-004 (0 to 1 mM) for 10 minutes prior to challenging with 1-Oleoyl-2-acetyl-sn-glycerol (OAG), a membrane permeable form of diacylglycerol.
(§2) Cell Culture—HEK293 cells were grown in DMEM with 4.5 g/L glucose supplemented with 10% FBS and 1% Gentamycin (Full DMEM media; Thermo-Fisher Scientific, Waltham, MA) at 37° C. and 5% CO2. […]
(§3) TRPC activity assay—Cells grown on glass coverslips were incubated in a cation-safe buffer (107 mM NaCl, 7.2 mM KCl, 1.2 mM MgCl2, 11.5 mM Glucose, 20 mM HEPES-NaOH, 1 mM CaCl2), pH 7.2) and loaded with Fura2-acetoxymethylester (Fura2-AM; 2 μM) for 30 min at 24° C. as previously described^10,11. […] Ca^2+/Sr^2+ measurements were taken using a Leica DMI 6000B fluorescence microscope controlled by Slidebook software (Intelligent Imaging Innovations, Denver, CO). Fluorescence emission at 505 nm was monitored in response to excitation at alternating 340 nm and 380 nm wavelengths at a frequency of 0.67 Hz; intracellular Ca^2+ measurements are shown at 340/380 nm ratios obtained from groups of 35-45 single cells.

[1] = Ability to cross the blood brain barrier
Experimental: ELP-004 was evaluated for its ability to cross the blood brain barrier. […] Other medications, such as for example but not limited to bupropion are known to cause problems due to dopamine transporter binding.

TRPC7 = biological target: T2, TRPC7 (Homo sapiens, UniProt Q9HCX4); test: OAG-induced Ca2+ entry in Fura2-loaded HEK293 cells overexpressing TRPC7; format: cell-based
T2 construct: expressed in transfected cells; host or cells: HEK293 (transient transfection)
T2 sequence (Q9HCX4 1-862): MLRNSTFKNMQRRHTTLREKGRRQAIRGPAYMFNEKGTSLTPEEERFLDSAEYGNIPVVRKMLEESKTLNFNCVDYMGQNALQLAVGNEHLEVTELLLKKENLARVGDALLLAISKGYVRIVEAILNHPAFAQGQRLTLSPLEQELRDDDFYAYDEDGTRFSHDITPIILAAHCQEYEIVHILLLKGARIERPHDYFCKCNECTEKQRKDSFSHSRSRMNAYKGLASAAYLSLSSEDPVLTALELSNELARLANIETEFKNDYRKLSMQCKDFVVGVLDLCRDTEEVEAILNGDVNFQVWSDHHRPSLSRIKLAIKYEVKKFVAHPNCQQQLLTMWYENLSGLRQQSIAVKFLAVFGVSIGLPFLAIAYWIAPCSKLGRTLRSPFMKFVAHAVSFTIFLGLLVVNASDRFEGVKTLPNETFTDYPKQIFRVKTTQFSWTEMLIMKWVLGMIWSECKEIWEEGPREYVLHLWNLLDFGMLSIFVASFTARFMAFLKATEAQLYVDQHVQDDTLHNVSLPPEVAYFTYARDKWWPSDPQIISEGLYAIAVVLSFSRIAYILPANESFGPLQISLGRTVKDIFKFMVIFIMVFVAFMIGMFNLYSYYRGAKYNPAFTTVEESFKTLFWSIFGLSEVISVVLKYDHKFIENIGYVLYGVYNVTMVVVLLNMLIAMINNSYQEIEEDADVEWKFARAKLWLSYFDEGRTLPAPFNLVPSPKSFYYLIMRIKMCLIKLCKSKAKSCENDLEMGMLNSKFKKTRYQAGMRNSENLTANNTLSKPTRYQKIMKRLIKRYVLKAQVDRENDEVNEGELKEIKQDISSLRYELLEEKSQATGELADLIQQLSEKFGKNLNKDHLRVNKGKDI
Experimental: as §1, §2
as §3, with “cells. […]” for “cells.”

CCC(=O)N(C)c1ccc(Cl)c(Cl)c1 [ELP-004, N-(3,4-dichlorophenyl)-N-methylpropanamide]
pIC50 (TRPC3): 5.70 to 6.00 | crossing of the blood brain barrier [1]: does not cross the blood brain barrier | pIC50 (TRPC7; FIG. 5, TRPC O/E cells, OAG, Ca2+ present, read-out: TRPC7 IC50): 8.05 | pIC50 (TRPC7; HEK293 expressing TRPC7, ELP-004 0 to 1 mM for 10 minutes before OAG, FIG. 1D, read-out: IC50, inhibition of OAG-induced Ca2+ entry): 5.70 to 6.00
